In patent EP0942896B1, “SUBSTITUTED PHENOLS AND THIOPHENOLS USEFUL AS ANTIOXIDANT AGENTS” (Aventis Pharmaceuticals Inc., priority 1996, dated 1998):
Like-named read-outs stand apart in the source and are kept apart here.

Key:
[1] = tested on: Male Sprague-Dawley Rats; assay: Serum clinical chemistries in rats fed compound as dietary admixture; assay type: in vivo; conditions: % of control, diet 0.3%, 4 days, N = 5; for ALT: alanine aminotransferase in rat serum; for ALP: alkaline phosphatase in rat serum; for AST: aspartate aminotransferase in rat serum; for GLUC: glucose in rat serum; for response vs control in vivo at 0.3 % in diet: feed or water, 96 h
Excerpt: (§1) A typical experiment consists of 4-6 groups of rats (N = 5 per group) with I group being a control which receives no MDL compound and the other groups being treated with 0.3% MDL compound. Some of the compounds are either repeated at 0.3% or evaluated again at the lower dose of 0.1%. House Male Sprague-Dawley rats, 50-100 g, (Harlan Laboratories, Indianapolis, IN) in groups of 5, feeding ad libitum water and Purina Rodent chow (#5002) with or without MDL compound as a dietary admixture for 4 days. Make dietary admixtures (0.3%) by mixing 1.2 grams of an MDL compound with 400 grams of Purina rodent chow (#5002). Mix the MDL compound with approximately 50 grams of food using a mortar and pestle. This is added to the remainder of the food and mixed for 3 hours on a rotary mixer. In the morning of day 5, anesthetize non-fasted rats with carbon dioxide, and collect blood by cardiac puncture. Sacrifice rats by cervical dislocation. Record body weights and liver weights in grams. Record food consumption as grams • day^-1 • rat^-1. Deaths are recorded as mortality. Use aliquots of fresh serum for clinical chemistries, thiobarbituric acid reactive substances (TBARS) and conjugated diene measurements. Freeze aliquots of serum (∼ 0.5mL) and whole livers at -20°C for compound and metabolite concentration determination at a later time.
Allow blood to clot at room temperature for 30 minutes. Obtain serum after centrifugation for 10 min at 4°C at 3000 rpm in a Beckman J-6M/E centrifuge with a JS-4.2 rotor. Analyze fresh serum by a COBAS MIRA S autoanalyzer (Roche Diagnostics) using Roche diagnostic reagents for the following clinical chemistry measurements: alkaline phosphatase (ALP, kit # 44553), alanine transaminase (ALT, kit # 42375), aspartate aminotransferase (AST, kit # 42381), total cholesterol (CHOL, kit # 44334), triglyceride (TG, kit # 44120), and glucose (GLU, kit # 44558). Calculate ALP, ALT, and AST as units/L. Calculate cholesterol, triglycerides, and glucose as mg/dL.

[2] = HPLC quantitation of compound and metabolite concentration in rat serum and liver; assay type: in vivo; conditions: male, Sprague-Dawley, oral, 0.3 % in chow, diet 0.3%, 4 days, mean N = 5
Excerpt: as §1
Determine serum and liver concentrations of parent compound and the metabolites, bisphenol and diphenoquinone, by reverse phase HPLC using a Waters 990 Powerline system. Homegenize livers (1 gram samples) with 5.0mL PBS, pH 7.4, using a Polytron tissue homogenizer at setting 5 for 20-30 seconds. Extract serum or liver homogenates as follows: add 100µL of either serum or homogenate to 2.0mL diethyl ether: ethanol (3:1) while vortexing the tube. Cap the sample tubes and centrifuge for 10 min at 5°C at 3500 rpm in a Beckman GPKR centrifuge with a GH 3.7 rotor. Transfer the supernatants to clean tubes and dry under N2. Reconstitute samples with 200µL of acetonitrile : hexane : 0.1 M ammonium acetate (90: 6.5 : 3.5, by vol.). Then, inject 100µL onto a Waters Deltapak C18-300 Å column, and elute with an 83% acetonitrile : 17% water mobile phase at a flow rate of 1.5mL/min. Record absorbances at the wavelengths of 240, 254, and 420nm. Calculate compound concentrations from known quantities of authentic parent compounds after correction for recovery. […]. Calculate concentrations as µg/mL of serum and µg/g of liver.

[3] = tested on: ICAM-1; assay: Inhibition of cytokine-induced ICAM-1 expression in human aortic smooth muscle cells (cell ELISA); assay type: cell-based; conditions: HASMC, tumor necrosis factor-alpha stimulated, average of two runs, numbers in parentheses represent negative values, read-out: ICAM-1 (% inh. 50 µM)
Procedure: (§2) Plate proliferating human umbilical vein endothelial cells (HUVEC) or human aortic smooth muscle cells (HASMC) from Clonetics (San Diego, CA) onto 96-well plates in 100 µL medium per well at 20,000 cells per cm^2. Maintain the cultures in growth medium (EGM or SMGM2, Clonetics, San Diego, CA) for two days prior to addition of cytokines or drugs. Add cytokines plus or minus compounds for 20 to 24 hours prior to analysis for adhesion molecule levels. Add tumor necrosis factor (Genzyme, Cambridge, MA) to cultures at 500-1000 units/mL to stimulate ICAM-1 expression. Add interleukin-4 (GIBCO-BRL, Gaithersburg, MD) to cultures at 100-200 pg/mL to stimulate VCAM-1 expression. […] Remove the culture medium, and wash the monolayers twice with Hanks buffered saline solution (HBSS) at room temperature. Add the primary antibody (anti-human VCAM-1 from Upstate Biotechnology, Inc., Lake Placid, NY or anti-human ICAM-1 from Immunotech, Inc., Westbrook, ME) to each well (1 µg/mL in HBSS plus 5% newborn calf serum, GIBCO-BRL, Gaithersburg, MD) and incubate at 37°C for 1 hr. Wash the wells twice with HBSS, then add 100 µL of a 1/1000 dilution of goat anti-mouse IgG conjugated to horse radish peroxidase (BioRad, Hercules, CA) in HBSS plus 5% newborn calf serum to each well and incubated for 1 hr at 37°C. Wash the wells three times with HBSS, then add 100 µL of TMB substrate (BioRad, Hercules, CA) to each well. Stop the reaction after blue color develops by addition of 50 µL of IN H2SO4. Measure absorbance at 450 nm with a plate reader.
(§3) Table 1 summarizes the ability of selected compounds of this invention to inhibit VCAM-1 and ICAM-1 using human aortic smooth muscle cells (HASMC). In these experiments, the cells were coincubated with interleukin-4 to stimulate VCAM-1 expression and with tumor necrosis factor-alpha to stimulate ICAM-1 expression.

[4] = tested on: VCAM-1; assay: Inhibition of cytokine-induced VCAM-1 expression in human aortic smooth muscle cells (cell ELISA); assay type: cell-based; conditions: HASMC, interleukin-4 stimulated, average of three runs, read-out: VCAM-1 (% inh. 50 µM)
Procedure: as §2, §3

[5] = total cholesterol in rat serum, read-out: CHOL
[6] = triglycerides in rat serum, read-out: TRIG
[7] = parent compound concentration in rat liver, read-out: Liver Parent
[8] = parent compound concentration in rat serum, read-out: Serum Parent

Q: What does the source list for CC(C)=CCC[C@H](C)CCOc1cc(C(C)(C)C)c(O)c(C(C)(C)C)c1 [MDL 103,294, Phenol, 2,6-bis(1,1-dimethylethyl)-4-[(3,7-dimethyl-6-octenyl)oxy]-, (S)-]?
A: ALT [1]: 132%; ALP [1]: 124%; AST [1]: 88%; GLUC [1]: 103%; response vs control in vivo at 0.3 % in diet [1, 5]: 102%; response vs control in vivo at 0.3 % in diet [1, 6]: 56%; concentration at 5 day [2, 7]: 64600 ng/g; concentration at 5 day [2, 8]: 21700 ng/mL

Q: For CC(C)=CCCC(C)CCSc1cc(C(C)(C)C)c(O)c(C(C)(C)C)c1 (centres unmarked) [MDL 103,960, Phenol, 2,6-bis(1,1-dimethylethyl)-4-[(3,7-dimethyl-6-octenyl)thio]-], which inhibition at 50 µM [3] is on record?
A: The inhibition at 50 µM was 0%.

Q: And the ALT [1]?
A: Its ALT is 117%.

Q: And the ALP [1]?
A: The ALP was 125%.

Q: What about the AST [1] of the same molecule?
A: The AST was 102%.

Q: And the GLUC [1]?
A: Its GLUC is 110%.

Q: What about the response vs control in vivo at 0.3 % in diet [1, 5] of the same molecule?
A: The response vs control in vivo at 0.3 % in diet was 113%.

Q: What about the response vs control in vivo at 0.3 % in diet [1, 6] of the same molecule?
A: Its response vs control in vivo at 0.3 % in diet is 80%.

Q: And the inhibition at 50 µM [4]?
A: The inhibition at 50 µM was 33.9 ± 6%.

Q: What about the concentration at 5 day [2, 7] of the same molecule?
A: Its concentration at 5 day is 47300 ng/g.

Q: And the concentration at 5 day [2, 8]?
A: The concentration at 5 day was 8700 ng/mL.

Q: For CC(C)CCCC(C)CCOc1ccc(O)c(C(C)(C)C)c1 (centres unmarked) [MDL 104,191, Phenol, 2-(1,1-dimethylethyl)-4-[(3,7-dimethyloctyl)oxy]-], which inhibition at 50 µM [3] is on record?
A: The inhibition at 50 µM was 22%.

Q: What about the ALT [1] of the same molecule?
A: The ALT was 149%.

Q: And the ALP [1]?
A: Its ALP is 81%.

Q: What about the AST [1] of the same molecule?
A: The AST was 146%.

Q: And the GLUC [1]?
A: The GLUC was 106%.

Q: And the response vs control in vivo at 0.3 % in diet [1, 5]?
A: The response vs control in vivo at 0.3 % in diet was 109%.

Q: And the response vs control in vivo at 0.3 % in diet [1, 6]?
A: Its response vs control in vivo at 0.3 % in diet is 112%.

Q: And the inhibition at 50 µM [4]?
A: Its inhibition at 50 µM is 42.9 ± 7%.

Q: And the concentration at 5 day [2, 7]?
A: The concentration at 5 day was 16100 ng/g.

Q: What about the concentration at 5 day [2, 8] of the same molecule?
A: Its concentration at 5 day is 6900 ng/mL.

Q: What does the source list for CC(C)=CCC[C@@H](C)CCOc1cc(C(C)(C)C)c(O)c(C(C)(C)C)c1 [MDL 104,535, Phenol, 2,6-bis(1,1-dimethylethyl)-4-[(3,7-dimethyl-6-octenyl)oxy]-,(R)-]?
A: inhibition at 50 µM [3]: 10%; ALT [1]: 108%; ALP [1]: 151%; AST [1]: 94%; GLUC [1]: 112%; response vs control in vivo at 0.3 % in diet [1, 5]: 103%; response vs control in vivo at 0.3 % in diet [1, 6]: 60%; inhibition at 50 µM [4]: 26.4 ± 14%; concentration at 5 day [2, 7]: 60300 ng/g; concentration at 5 day [2, 8]: 16300 ng/mL
